Assay in all cases: NCI anticancer screen, dose series, 48 h
The test system of assay [1] is MCF7 breast.
Assay [2] concerns CAKI-1 renal.
Assay [3] has as its system MDA-MB-435.
Assay [4] deals with UO-31 renal.
The test system of assay [5] is HL-60(TB) leukemia.
Assay [6] concerns SNB-19 CNS.
Assay [7] has as its system T-47D breast.
Assay [8] relates to UACC-257 melanoma.
The subject of assay [9] is SF-268 CNS.
The test system of assay [10] is KM12 colon.

Each structure is given as a SMILES string.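 All cell lines were grown in 96-well plates and treated with compound for 48 hours. GI50 is the concentration that inhibits growth by half. TGI: concentration producing complete growth inhibition.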

With `COc1cc2c3c(n(CCCN)c(=O)c2cc1OC)-c1ccc(F)cc1C3=O`, the GI50 is 0.618 µM in [1]; 1.69 µM in assay [2]; 8.16 µM in assay [3]; 8.15 µM in assay [4]; 8.15 µM in assay [5]; 1.47 µM in [6]. For the same molecule, the GI50 was 2.46 µM in assay [7], 13.9 µM in assay [8], 3.08 µM in [9] and 5.95 µM in [10]. Besides, the TGI in assay [1] was 7.25 µM; in assay [2] it was 15.6 µM; in assay [3], 25.5 µM; in assay [4], 23.7 µM; in assay [5], 24.9 µM; in [6] it was 15.9 µM. For the same molecule, the TGI in [7] came out at 15.5 µM; in [8], 31 µM; in assay [9] it was 20.3 µM; in [10] it was 20.3 µM.

As to `N#CC1C(=N)Cc2ccccc2-c2ccccc21` (configuration not stated), the GI50 in assay [1] is 4.2 µM; in [2], 3.21 µM; in assay [3] it was 1.2 µM; in [4], 4.06 µM; in assay [5], 3.23 µM; in [6], 9.44 µM. For the same molecule, the GI50 in [7] is 5.61 µM; in [8] it was 8.33 µM; in [9], 7.7 µM; in assay [10] it was 3.43 µM. The TGI in [1] is 80.1 µM; in [2], 24.2 µM; in assay [3] it was 3.57 µM; in [4] it was 31.2 µM; in [5], 16.6 µM; in [6] it was greater than 100 µM. Moreover, the TGI in assay [7] stood at 73.3 µM; in assay [8], 69.1 µM; in assay [9], 51.7 µM; in assay [10] it was 16.1 µM.

In the case of `CS(=O)(=O)N1CCN(Cc2cc3nc(-c4cccc5[nH]ncc45)nc(N4CCOCC4)c3s2)CC1` (tested in a mixture with another compound), the GI50 in [1] is 0.0509 µM; in assay [2], 0.0769 µM; in assay [3], 0.0425 µM; in [4], 0.0493 µM; in assay [5], 0.0575 µM; in assay [6], 0.328 µM. Moreover, the GI50 in assay [7] was 0.0207 µM; in assay [8] it was 0.0608 µM; in assay [9] it was 0.152 µM; in [10], 0.0826 µM. In addition, the TGI was found to be 0.462 µM in assay [2]; 0.211 µM in assay [3]; 0.292 µM in [4]; 34 µM in assay [5]; 0.105 µM in assay [7]; 0.42 µM in assay [8]. The same molecule yielded a TGI in assay [10] of 0.415 µM.

As for `COc1ncc(-c2nc3c(n2C(C)C)[C@H](c2ccc(Cl)cc2)N(c2cc(Cl)cn(C)c2=O)C3=O)c(OC)n1`, the GI50 was 17.3 µM in assay [1]; 26.3 µM in assay [2]; 35.3 µM in [3]; 5.83 µM in [4]; 31.2 µM in assay [5]; 61.5 µM in assay [6]. The GI50 was 29.5 µM in [7], 17.2 µM in assay [8], 71.5 µM in assay [9] and 41.2 µM in [10]. Besides, the TGI in [1] is greater than 100 µM; in assay [2], greater than 100 µM; in assay [3], greater than 100 µM; in assay [4], 88.8 µM; in [5], 99.7 µM; in [6], greater than 100 µM. In addition, the TGI is greater than 100 µM in assay [7], 94.4 µM in [8], greater than 100 µM in [9] and greater than 100 µM in assay [10].

Consider `COc1cc2cc(Oc3ccc(NC(=O)Nc4ccccc4)cc3)c(C)nc2cc1OCCN1CCCCC1`, for which the GI50 in [1] was 5.14 µM; in assay [2], 4.94 µM; in assay [3], 5.55 µM; in [4], 3.87 µM; in assay [5] it was 6.43 µM; in [6], 5.77 µM. For the same molecule, the GI50 in [7] was 6.12 µM; in assay [8] it was 6.46 µM; in assay [9], 5.88 µM; in [10] it was 6.8 µM. Besides, the TGI in assay [1] is 10 µM; in assay [2], 10 µM; in assay [3], 10.1 µM; in assay [4], 7.94 µM; in assay [5] it was 13.3 µM; in [6] it was 11 µM. In addition, the TGI in [7] was determined as 14.5 µM; in assay [8], 12.4 µM; in assay [9], 12.6 µM; in [10], 14.3 µM.

Consider `O=C(O)CCC1COc2ccccc2O1` (configuration not stated), for which the TGI in [1], in assay [2], in assay [3], in assay [4], in assay [5] and in [6] was greater than 10 µM each time. In addition, the TGI in assay [7], in [8], in assay [9] and in assay [10] was greater than 10 µM each time.

As to `Nc1nc2c(c3ncccc13)C(c1cccc(Cl)c1)Cc1ncccc1-2` (configuration not stated), the GI50 is 0.514 µM in [1]; 3.04 µM in [2]; 0.29 µM in [3]; 3.98 µM in assay [4]; 1.21 µM in assay [5]; 2.5 µM in assay [6]. In addition, the GI50 in [7] was 3.28 µM; in assay [8], 15 µM; in assay [9], 3.79 µM; in [10] it was 0.646 µM. Moreover, the TGI in assay [1] is 17.6 µM; in assay [2] it was 51.8 µM; in assay [3] it was 1.17 µM; in assay [4], 34.9 µM; in [5], 10.3 µM; in assay [6], 17.7 µM. Besides, the TGI worked out at 38.5 µM in [7], 44.5 µM in assay [8], 32.1 µM in assay [9] and 15.5 µM in assay [10].

`CC[N+](CC)=c1ccc2nc3c(cc(NCc4ccccc4)c4ccccc43)oc-2c1`: the GI50 is 0.165 µM in [1]; 0.231 µM in assay [2]; 0.18 µM in assay [3]; 0.089 µM in assay [4]; 0.209 µM in [5]; 1.19 µM in assay [6]. The GI50 is 0.337 µM in assay [7], 0.159 µM in [8], 0.307 µM in assay [9] and 0.292 µM in [10]. Besides, the TGI in assay [1] is 0.474 µM; in [2], 1.54 µM; in assay [3], 0.352 µM; in assay [4], 1.15 µM; in [5], 1.11 µM; in assay [6], 2.51 µM. The TGI came to 2.3 µM in [7], 0.387 µM in assay [8], 1.51 µM in [9] and 1.32 µM in assay [10].

The record behind these values is PubChem BioAssay (NCI).
